{"source": "paper PMC8580319", "about": "“Dual activities of ACC synthase: Novel clues regarding the molecular evolution of ACS genes” (Science Advances, 2021)", "conditions_in_all_cases": "Cβ-S lyase activity; 4 mM L-cystine, 100 μM PLP, 30°C", "key": {"OsACS1": {"target": "T1, OsACS1 (Oryza sativa, UniProt A2XLL2)", "T1 construct": "gene ACC1; recombinant, His or GST tag, from E. coli", "T1 sequence (A2XLL2 1-487)": "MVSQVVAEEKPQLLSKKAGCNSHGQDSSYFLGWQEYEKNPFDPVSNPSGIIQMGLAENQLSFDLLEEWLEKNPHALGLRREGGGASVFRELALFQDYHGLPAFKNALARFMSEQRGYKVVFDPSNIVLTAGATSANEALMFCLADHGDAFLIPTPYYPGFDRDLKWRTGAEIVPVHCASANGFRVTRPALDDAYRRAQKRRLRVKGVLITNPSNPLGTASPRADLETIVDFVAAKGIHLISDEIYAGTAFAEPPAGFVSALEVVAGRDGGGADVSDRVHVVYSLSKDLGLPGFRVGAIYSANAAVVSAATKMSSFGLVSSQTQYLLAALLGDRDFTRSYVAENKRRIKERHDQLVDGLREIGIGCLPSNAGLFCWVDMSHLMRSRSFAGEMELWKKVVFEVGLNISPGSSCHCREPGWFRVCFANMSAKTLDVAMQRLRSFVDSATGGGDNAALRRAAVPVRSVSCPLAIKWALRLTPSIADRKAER", "test": "pyruvate formation, […],4-dinitrophenylhydrazine, A520", "type": "biochemical"}, "GmACS7-like": {"target": "T2, GmACS7-like (Glycine max, UniProt I1K634)", "T2 construct": "gene LOC100799562; recombinant, His or GST tag, from E. coli", "T2 sequence (I1K634 1-440)": "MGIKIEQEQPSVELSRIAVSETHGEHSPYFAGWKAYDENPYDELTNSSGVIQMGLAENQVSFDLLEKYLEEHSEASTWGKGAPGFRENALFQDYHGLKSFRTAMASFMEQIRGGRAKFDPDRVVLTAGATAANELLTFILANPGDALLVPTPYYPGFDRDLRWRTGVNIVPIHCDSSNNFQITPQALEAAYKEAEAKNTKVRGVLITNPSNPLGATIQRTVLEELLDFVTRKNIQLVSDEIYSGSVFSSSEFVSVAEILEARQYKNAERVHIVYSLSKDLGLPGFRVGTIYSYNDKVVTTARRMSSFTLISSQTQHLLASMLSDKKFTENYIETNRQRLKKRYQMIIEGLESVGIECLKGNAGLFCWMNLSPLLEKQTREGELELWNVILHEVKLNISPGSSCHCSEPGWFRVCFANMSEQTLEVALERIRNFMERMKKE", "test": "pyruvate formation, […],4-dinitrophenylhydrazine, A520", "type": "biochemical"}, "AtACS8": {"target": "T3, AtACS8 (Arabidopsis thaliana, UniProt Q9T065)", "T3 construct": "gene ACS8; recombinant, His or GST tag, from E. coli", "T3 sequence (Q9T065 1-469)": "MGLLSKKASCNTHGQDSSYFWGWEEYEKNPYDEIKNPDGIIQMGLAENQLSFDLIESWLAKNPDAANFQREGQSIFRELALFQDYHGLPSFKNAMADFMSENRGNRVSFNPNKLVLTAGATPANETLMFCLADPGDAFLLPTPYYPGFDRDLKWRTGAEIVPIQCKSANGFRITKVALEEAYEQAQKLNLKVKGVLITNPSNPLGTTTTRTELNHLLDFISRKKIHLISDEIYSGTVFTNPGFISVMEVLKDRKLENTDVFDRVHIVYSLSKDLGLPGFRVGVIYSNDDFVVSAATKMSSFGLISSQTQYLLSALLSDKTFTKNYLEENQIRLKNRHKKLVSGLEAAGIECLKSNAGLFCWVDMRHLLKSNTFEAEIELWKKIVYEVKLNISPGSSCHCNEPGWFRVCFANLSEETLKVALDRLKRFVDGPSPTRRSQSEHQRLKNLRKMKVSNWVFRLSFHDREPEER", "test": "pyruvate formation, […],4-dinitrophenylhydrazine, A520", "type": "biochemical"}, "AtACS6": {"target": "T4, AtACS6 (Arabidopsis thaliana, UniProt Q9SAR0)", "T4 construct": "gene ACS6; recombinant, His or GST tag, from E. coli", "T4 sequence (Q9SAR0 1-495)": "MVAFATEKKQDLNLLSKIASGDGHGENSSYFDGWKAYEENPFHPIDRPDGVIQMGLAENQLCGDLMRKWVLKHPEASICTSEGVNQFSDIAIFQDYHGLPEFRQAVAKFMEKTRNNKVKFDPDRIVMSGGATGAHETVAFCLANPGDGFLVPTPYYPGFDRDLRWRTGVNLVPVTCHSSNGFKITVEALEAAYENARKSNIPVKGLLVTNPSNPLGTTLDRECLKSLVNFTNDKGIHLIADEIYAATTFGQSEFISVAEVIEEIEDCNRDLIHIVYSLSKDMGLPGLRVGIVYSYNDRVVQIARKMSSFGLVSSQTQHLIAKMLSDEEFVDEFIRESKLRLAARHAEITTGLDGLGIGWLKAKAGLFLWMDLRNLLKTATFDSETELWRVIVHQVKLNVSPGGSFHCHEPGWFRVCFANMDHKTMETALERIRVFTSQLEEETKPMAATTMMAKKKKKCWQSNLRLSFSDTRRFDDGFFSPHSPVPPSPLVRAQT", "test": "pyruvate formation, […],4-dinitrophenylhydrazine, A520", "type": "biochemical"}, "SlACS4": {"target": "T5, SlACS4 (Solanum lycopersicum, UniProt P29535)", "T5 construct": "gene ACS4; recombinant, His or GST tag, from E. coli", "test": "pyruvate formation, […],4-dinitrophenylhydrazine, A520", "type": "biochemical"}, "AtACS7": {"target": "T6, AtACS7 (Arabidopsis thaliana, UniProt Q9STR4, Q98A)", "T6 construct": "gene ACS7; recombinant from E. coli Rosetta 2 (DE3) pLysS; pET-28a (His) or pGEX-6p-1 (GST); His-tagged protein for crystals; dimer", "T6 sequence (Q9STR4 1-447 Q98A)": "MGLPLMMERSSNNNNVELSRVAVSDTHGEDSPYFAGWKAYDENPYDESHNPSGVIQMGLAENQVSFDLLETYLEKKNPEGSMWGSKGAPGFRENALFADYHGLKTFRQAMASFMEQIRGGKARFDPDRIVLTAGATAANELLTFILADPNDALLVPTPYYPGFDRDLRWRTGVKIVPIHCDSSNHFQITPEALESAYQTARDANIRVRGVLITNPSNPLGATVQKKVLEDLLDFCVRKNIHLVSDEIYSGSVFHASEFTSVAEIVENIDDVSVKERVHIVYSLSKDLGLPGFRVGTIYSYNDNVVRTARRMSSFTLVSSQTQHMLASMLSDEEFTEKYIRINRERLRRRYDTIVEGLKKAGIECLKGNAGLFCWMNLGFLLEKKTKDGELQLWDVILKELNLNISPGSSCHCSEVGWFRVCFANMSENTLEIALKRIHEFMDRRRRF", "test": "pyruvate formation, […],4-dinitrophenylhydrazine, A520", "type": "biochemical"}, "OsACS5": {"target": "T7, OsACS5 (Oryza sativa, UniProt A0A0P0UZP7)", "T7 construct": "gene ACS5", "T7 sequence (A0A0P0UZP7 whole entry)": "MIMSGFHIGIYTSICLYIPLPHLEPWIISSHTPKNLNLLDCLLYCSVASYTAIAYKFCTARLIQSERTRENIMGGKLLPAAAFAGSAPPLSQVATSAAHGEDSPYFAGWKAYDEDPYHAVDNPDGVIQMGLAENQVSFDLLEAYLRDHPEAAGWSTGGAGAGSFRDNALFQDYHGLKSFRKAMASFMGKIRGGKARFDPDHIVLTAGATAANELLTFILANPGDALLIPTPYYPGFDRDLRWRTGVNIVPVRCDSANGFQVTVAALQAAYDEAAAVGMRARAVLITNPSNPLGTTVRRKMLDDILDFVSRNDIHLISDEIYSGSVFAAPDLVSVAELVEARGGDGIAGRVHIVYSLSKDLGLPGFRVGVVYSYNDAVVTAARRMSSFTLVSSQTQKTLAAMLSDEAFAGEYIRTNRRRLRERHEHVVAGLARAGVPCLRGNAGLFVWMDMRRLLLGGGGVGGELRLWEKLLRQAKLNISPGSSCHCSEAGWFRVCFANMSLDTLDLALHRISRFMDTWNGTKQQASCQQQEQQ"}}, "data": [{"smiles": "N[C@@H](CSSC[C@H](N)C(=O)O)C(=O)O", "note": "[L-cystine]", "values": [{"measurement": "pyruvate formation, 2,4-dinitrophenylhydrazine, A520", "setting": "OsACS1", "value": "all of them had ACS and Cβ-S lyase dual enzymatic activities"}, {"measurement": "pyruvate formation, 2,4-dinitrophenylhydrazine, A520", "setting": "GmACS7-like", "value": "all of them had ACS and Cβ-S lyase dual enzymatic activities"}, {"measurement": "pyruvate formation, 2,4-dinitrophenylhydrazine, A520", "setting": "AtACS8", "value": "all of them had ACS and Cβ-S lyase dual enzymatic activities"}, {"measurement": "pyruvate formation, 2,4-dinitrophenylhydrazine, A520", "setting": "AtACS6", "value": "all of them had ACS and Cβ-S lyase dual enzymatic activities"}, {"measurement": "pyruvate formation, 2,4-dinitrophenylhydrazine, A520", "setting": "SlACS4", "value": "all of them had ACS and Cβ-S lyase dual enzymatic activities"}, {"measurement": "pyruvate formation, 2,4-dinitrophenylhydrazine, A520", "setting": "AtACS7", "value": "the mutant had high in vitro Cβ-S lyase activity"}, {"measurement": "pyruvate formation, 2,4-dinitrophenylhydrazine, A520", "setting": "OsACS5", "value": "all of them had ACS and Cβ-S lyase dual enzymatic activities"}]}]}
